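Tested at 5 concentrations; 48 h exposure; 96-well plates; endpoints linearly interpolated, else capped at highest concentration. TGI: total growth inhibition.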
Legend:
Assay in all cases: growth of human tumour cells (NCI), 48 h
[1] = system: 786-0 renal
[2] = system: A498 renal
[3] = system: A549 NSCLC
[4] = system: ACHN renal
[5] = system: CAKI-1 renal
[6] = system: CCRF-CEM leukemia
[7] = system: COLO 205 colon
[8] = system: DU-145 prostate
[9] = system: EKVX NSCLC
[10] = system: HCC-2998 colon
[11] = system: HCT-116 colon
[12] = system: HCT-15 colon
[13] = system: HL-60(TB) leukemia
[14] = system: HOP-62 NSCLC
[15] = system: HOP-92 NSCLC
[16] = system: HS 578T breast
[17] = system: HT29 colon
[18] = system: IGROV1 ovarian
[19] = system: K-562 leukemia
[20] = system: KM12 colon
[21] = system: LOX IMVI melanoma
[22] = system: M14 melanoma
[23] = system: MALME-3M melanoma
[24] = system: MCF7 breast
[25] = system: MDA-MB-231 breast
[26] = system: MDA-MB-435
[27] = system: MDA-N
[28] = system: MOLT-4 leukemia
[29] = system: NCI-H226 lung
[30] = system: NCI-H23 lung
[31] = system: NCI-H460 lung
[32] = system: NCI-H522 lung
[33] = system: NCI/ADR-RES ovarian
[34] = system: OVCAR-3 ovarian
[35] = system: OVCAR-4 ovarian
[36] = system: OVCAR-5 ovarian
[37] = system: OVCAR-8 ovarian
[38] = system: PC-3 prostate
[39] = system: RPMI-8226 leukemia
[40] = system: RXF 393 renal
[41] = system: SF-268 CNS
[42] = system: SF-295 CNS
[43] = system: SF-539 CNS
[44] = system: SK-MEL-2 melanoma
[45] = system: SK-MEL-28 melanoma
[46] = system: SK-MEL-5 melanoma
[47] = system: SK-OV-3 ovarian
[48] = system: SN12C renal
[49] = system: SNB-19 CNS
[50] = system: SNB-75 CNS
[51] = system: SW-620 colon
[52] = system: T-47D breast
[53] = system: TK-10 renal
[54] = system: U251 CNS
[55] = system: UACC-257 melanoma
[56] = system: UACC-62 melanoma
[57] = system: UO-31 renal
[58] = system: SR leukemia

COc1ccc(OC)c2c1C1CCC(=O)N1CN2C(C)=O (stereo not given)
TGI [1]: > 100 µM | TGI [2]: > 100 µM | TGI [3]: > 100 µM | TGI [4]: > 100 µM | TGI [5]: > 100 µM | TGI [6]: > 100 µM | TGI [7]: > 100 µM | TGI [8]: > 100 µM | TGI [9]: > 100 µM | TGI [10]: > 100 µM | TGI [11]: > 100 µM | TGI [12]: > 100 µM | TGI [13]: > 100 µM | TGI [14]: > 100 µM | TGI [15]: > 100 µM | TGI [16]: > 100 µM | TGI [17]: > 100 µM | TGI [18]: > 100 µM | TGI [19]: > 100 µM | TGI [20]: > 100 µM | TGI [21]: > 100 µM | TGI [22]: > 100 µM | TGI [23]: > 100 µM | TGI [24]: > 100 µM | TGI [25]: > 100 µM | TGI [26]: > 100 µM | TGI [27]: > 100 µM | TGI [28]: > 100 µM | TGI [29]: > 100 µM | TGI [30]: > 100 µM | TGI [31]: > 100 µM | TGI [32]: > 100 µM | TGI [33]: > 100 µM | TGI [34]: > 100 µM | TGI [35]: > 100 µM | TGI [36]: > 100 µM | TGI [37]: > 100 µM | TGI [38]: > 100 µM | TGI [39]: > 100 µM | TGI [40]: > 100 µM | TGI [41]: > 100 µM | TGI [42]: > 100 µM | TGI [43]: > 100 µM | TGI [44]: > 100 µM | TGI [45]: > 100 µM | TGI [46]: > 100 µM | TGI [47]: > 100 µM | TGI [48]: > 100 µM | TGI [49]: > 100 µM | TGI [50]: > 100 µM | TGI [51]: > 100 µM | TGI [52]: > 100 µM | TGI [53]: > 100 µM | TGI [54]: > 100 µM | TGI [55]: > 100 µM | TGI [56]: > 100 µM | TGI [57]: > 100 µM

COC(=O)C1(Cc2ccccc2)Cc2ccccc2C1
TGI [1]: 81.9 µM | TGI [3]: > 100 µM | TGI [4]: > 100 µM | TGI [5]: 65.4 µM | TGI [6]: 42.4 µM | TGI [7]: 35.8 µM | TGI [8]: > 100 µM | TGI [9]: 89.4 µM | TGI [10]: 98.2 µM | TGI [11]: 49.8 µM | TGI [12]: > 100 µM | TGI [13]: 45.8 µM | TGI [14]: > 100 µM | TGI [15]: 46.3 µM | TGI [16]: > 100 µM | TGI [17]: 41.7 µM | TGI [18]: > 100 µM | TGI [19]: 52.3 µM | TGI [20]: > 100 µM | TGI [21]: 88 µM | TGI [22]: 34.8 µM | TGI [23]: 35.4 µM | TGI [24]: > 100 µM | TGI [25]: > 100 µM | TGI [26]: 41.8 µM | TGI [27]: 49.3 µM | TGI [28]: 41.8 µM | TGI [29]: 78.3 µM | TGI [30]: > 100 µM | TGI [31]: 84.9 µM | TGI [33]: 69.2 µM | TGI [35]: > 100 µM | TGI [36]: > 100 µM | TGI [37]: > 100 µM | TGI [38]: > 100 µM | TGI [39]: 57.9 µM | TGI [41]: > 100 µM | TGI [42]: 99.2 µM | TGI [43]: > 100 µM | TGI [44]: 25.8 µM | TGI [45]: > 100 µM | TGI [46]: 31.9 µM | TGI [47]: > 100 µM | TGI [48]: > 100 µM | TGI [50]: 96.2 µM | TGI [58]: > 100 µM | TGI [51]: > 100 µM | TGI [52]: 90.8 µM | TGI [53]: > 100 µM | TGI [54]: 73.5 µM | TGI [55]: 65.6 µM | TGI [56]: 75.6 µM | TGI [57]: 55.9 µM
